Experimental findings from US7846959B2, “Raf modulators and methods of use” (Exelixis, Inc., priority 2004, dated 2010) are described below.

For one assay, the target named is B-Raf (Homo sapiens, UniProt P15056). Nature of the assay: Luciferase-coupled chemiluminescence kinase assay (ATP consumption), B-Raf. As to conditions: read-out: bRaf IC50. It counts as biochemical. Summed up:
(§1)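 Pre-incub. kinase […] + cpd, 30 min RT (20 mM Tris pH 7.5, 10 mM MgCl2, 0.03% TX-100, 1 mM DTT). Start w/ ATP, 3 h ambient. Luciferase-luciferin mix added and luminescence read. Total ATP use 25-60%. IC50 derived.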

For another assay, the target named is c-Raf (Homo sapiens, UniProt P04049). The assay is described as follows: Luciferase-coupled chemiluminescence kinase assay (ATP consumption), c-Raf. Format: biochemical. As to conditions: read-out: cRaf-1 IC50. Summed up: as §1
Chain of c-Raf (P04049 whole entry): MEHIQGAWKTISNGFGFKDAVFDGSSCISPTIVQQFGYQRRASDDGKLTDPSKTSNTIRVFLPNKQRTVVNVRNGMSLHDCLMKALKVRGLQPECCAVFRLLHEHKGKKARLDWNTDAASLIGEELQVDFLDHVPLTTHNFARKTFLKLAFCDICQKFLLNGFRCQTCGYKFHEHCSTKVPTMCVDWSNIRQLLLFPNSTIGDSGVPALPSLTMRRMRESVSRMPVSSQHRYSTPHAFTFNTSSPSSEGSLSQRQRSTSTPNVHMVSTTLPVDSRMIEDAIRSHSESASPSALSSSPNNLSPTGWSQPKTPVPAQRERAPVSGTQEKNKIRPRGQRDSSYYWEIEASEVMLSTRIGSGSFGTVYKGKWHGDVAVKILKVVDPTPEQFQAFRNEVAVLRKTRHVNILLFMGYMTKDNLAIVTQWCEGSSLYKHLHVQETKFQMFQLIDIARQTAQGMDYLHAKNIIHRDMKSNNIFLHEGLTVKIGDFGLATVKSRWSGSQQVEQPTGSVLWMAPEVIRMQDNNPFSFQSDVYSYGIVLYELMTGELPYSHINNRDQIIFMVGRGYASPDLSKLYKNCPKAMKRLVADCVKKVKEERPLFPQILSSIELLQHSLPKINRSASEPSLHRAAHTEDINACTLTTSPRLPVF

Chain of B-Raf (P15056 whole entry): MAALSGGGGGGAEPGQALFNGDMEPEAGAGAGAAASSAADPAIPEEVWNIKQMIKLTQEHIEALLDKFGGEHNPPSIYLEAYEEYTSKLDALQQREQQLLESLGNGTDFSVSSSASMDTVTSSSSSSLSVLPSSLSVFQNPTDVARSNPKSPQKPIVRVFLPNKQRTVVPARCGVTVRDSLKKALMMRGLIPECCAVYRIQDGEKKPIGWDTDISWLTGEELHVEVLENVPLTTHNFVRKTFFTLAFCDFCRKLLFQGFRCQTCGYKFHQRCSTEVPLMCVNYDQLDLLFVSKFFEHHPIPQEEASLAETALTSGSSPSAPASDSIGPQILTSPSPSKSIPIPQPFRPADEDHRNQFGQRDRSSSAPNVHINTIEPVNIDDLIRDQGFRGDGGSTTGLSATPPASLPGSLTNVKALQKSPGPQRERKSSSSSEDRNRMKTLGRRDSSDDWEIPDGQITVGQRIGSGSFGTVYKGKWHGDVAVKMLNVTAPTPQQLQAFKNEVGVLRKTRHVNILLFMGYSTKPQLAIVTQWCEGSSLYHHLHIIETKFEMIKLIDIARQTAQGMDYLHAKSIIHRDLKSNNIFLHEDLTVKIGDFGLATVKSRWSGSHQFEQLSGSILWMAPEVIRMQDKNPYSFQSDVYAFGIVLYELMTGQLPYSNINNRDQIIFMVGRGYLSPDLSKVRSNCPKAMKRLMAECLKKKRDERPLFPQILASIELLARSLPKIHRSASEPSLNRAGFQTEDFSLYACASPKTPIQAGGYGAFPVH

Broadly, the IC50 is the concentration needed to halve the response being measured. In the case of `COC(=O)Nc1nc2cc(C3(O)c4ccccc4C(=O)N3Cc3ccccc3Br)ccc2[nH]1` (centres unmarked) [Entry 130, methyl (5-{2-[(2-bromophenyl)methyl]-1-hydroxy-3-oxo-2,3-dihydro-1H-isoindol-1-yl}-1H-benzimidazol-2-yl)carbamate], the IC50 at B-Raf and on c-Raf was 100 to 1000 nM throughout.

On to `COC(=O)Nc1nc2cc(C3(O)c4ccccc4C(=O)N3Cc3cccc(C)c3)ccc2[nH]1` (centres unmarked) [Entry 131, methyl (5-{1-hydroxy-2-[(3-methylphenyl)methyl]-3-oxo-2,3-dihydro-1H-isoindol-1-yl}-1H-benzimidazol-2-yl)carbamate], for which the IC50 on B-Raf and at c-Raf was less than 100 nM throughout.

Take `COC(=O)Nc1nc2cc(C3(O)c4ccccc4C(=O)N3Cc3ccc(C)cc3)ccc2[nH]1` (centres unmarked) [Entry 132, methyl (5-{1-hydroxy-2-[(4-methylphenyl)methyl]-3-oxo-2,3-dihydro-1H-isoindol-1-yl}-1H-benzimidazol-2-yl)carbamate]: the IC50 at B-Raf is 1000 to 10000 nM; at c-Raf, 100 to 1000 nM.

As to `COC(=O)Nc1nc2cc(C3(O)c4ccccc4C(=O)N3Cc3ccccc3C)ccc2[nH]1` (centres unmarked) [Entry 133, methyl (5-{1-hydroxy-2-[(2-methylphenyl)methyl]-3-oxo-2,3-dihydro-1H-isoindol-1-yl}-1H-benzimidazol-2-yl)carbamate], the IC50 on B-Raf and at c-Raf was less than 100 nM throughout.

For the compound `COC(=O)Nc1nc2cc(C3(O)c4ccccc4C(=O)N3c3cccc(Br)c3)ccc2[nH]1` (centres unmarked) [Entry 134, methyl {5-[2-(3-bromophenyl)-1-hydroxy-3-oxo-2,3-dihydro-1H-isoindol-1-yl]-1H-benzimidazol-2-yl}carbamate], the IC50 at B-Raf and on c-Raf was less than 100 nM in each case.

On to `COC(=O)Nc1nc2cc(C3(O)c4ccccc4C(=O)N3c3cccc(Cl)c3)ccc2[nH]1` (centres unmarked) [Entry 135, methyl {5-[2-(3-chlorophenyl)-1-hydroxy-3-oxo-2,3-dihydro-1H-isoindol-1-yl]-1H-benzimidazol-2-yl}carbamate], for which the IC50 at B-Raf and at c-Raf was less than 100 nM throughout.

As for `COC(=O)Nc1nc2cc(C3(O)c4ccccc4C(=O)N3c3cccc(F)c3)ccc2[nH]1` (centres unmarked) [Entry 136, methyl {5-[2-(3-fluorophenyl)-1-hydroxy-3-oxo-2,3-dihydro-1H-isoindol-1-yl]-1H-benzimidazol-2-yl}carbamate], the IC50 at B-Raf and at c-Raf was less than 100 nM in each case.

Regarding `COC(=O)Nc1nc2cc(C3(O)c4ccccc4C(=O)N3c3cccc(OC)c3)ccc2[nH]1` (centres unmarked) [Entry 137, methyl (5-{1-hydroxy-2-[3-(methyloxy)phenyl]-3-oxo-2,3-dihydro-1H-isoindol-1-yl}-1H-benzimidazol-2-yl)carbamate], the IC50 at B-Raf and at c-Raf was less than 100 nM each time.

As for `COC(=O)Nc1nc2cc(C3(O)c4ccccc4C(=O)N3c3ccc(Br)cc3)ccc2[nH]1` (centres unmarked) [Entry 138, methyl {5-[2-(4-bromophenyl)-1-hydroxy-3-oxo-2,3-dihydro-1H-isoindol-1-yl]-1H-benzimidazol-2-yl}carbamate], the IC50 at B-Raf and at c-Raf was 100 to 1000 nM in each case.

In the case of `COC(=O)Nc1nc2cc(C3(O)c4ccccc4C(=O)N3c3ccc(Cl)cc3)ccc2[nH]1` (centres unmarked) [Entry 139, methyl {5-[2-(4-chlorophenyl)-1-hydroxy-3-oxo-2,3-dihydro-1H-isoindol-1-yl]-1H-benzimidazol-2-yl}carbamate], the IC50 at B-Raf and at c-Raf was less than 100 nM each time.

For the compound `COC(=O)Nc1nc2cc(C3(O)c4ccccc4C(=O)N3c3ccc(F)cc3)ccc2[nH]1` (centres unmarked) [Entry 140, methyl {5-[2-(4-fluorophenyl)-1-hydroxy-3-oxo-2,3-dihydro-1H-isoindol-1-yl]-1H-benzimidazol-2-yl}carbamate], the IC50 on B-Raf and at c-Raf was less than 100 nM throughout.

`COC(=O)Nc1nc2cc(C3(O)c4ccccc4C(=O)N3c3cc(C)cc(C)c3)ccc2[nH]1` (centres unmarked) [Entry 141, methyl {5-[2-(3,5-dimethylphenyl)-1-hydroxy-3-oxo-2,3-dihydro-1H-isoindol-1-yl]-1H-benzimidazol-2-yl}carbamate]: the IC50 at B-Raf and on c-Raf was less than 100 nM throughout.

With `COC(=O)Nc1nc2cc(C3(O)c4ccccc4C(=O)N3c3ccccc3F)ccc2[nH]1` (centres unmarked) [Entry 142, methyl {5-[2-(2-fluorophenyl)-1-hydroxy-3-oxo-2,3-dihydro-1H-isoindol-1-yl]-1H-benzimidazol-2-yl}carbamate], the half-maximal inhibitory concentration (IC50) at B-Raf and on c-Raf was less than 100 nM in each case.

Regarding `COC(=O)Nc1nc2cc(C3(O)c4ccccc4C(=O)N3c3ccccc3Cl)ccc2[nH]1` (centres unmarked) [Entry 143, methyl {5-[2-(2-chlorophenyl)-1-hydroxy-3-oxo-2,3-dihydro-1H-isoindol-1-yl]-1H-benzimidazol-2-yl}carbamate], the IC50 at B-Raf and at c-Raf was less than 100 nM each time.

As to `COC(=O)Nc1nc2cc(C3(O)c4ccccc4C(=O)N3c3ccccc3C)ccc2[nH]1` (centres unmarked) [Entry 144, methyl {5-[1-hydroxy-2-(2-methylphenyl)-3-oxo-2,3-dihydro-1H-isoindol-1-yl]-1H-benzimidazol-2-yl}carbamate], the IC50 on B-Raf and at c-Raf was less than 100 nM each time.

Take `COC(=O)Nc1nc2cc(C3(O)c4ccccc4C(=O)N3c3ccccc3OC)ccc2[nH]1` (centres unmarked) [Entry 145, methyl (5-{1-hydroxy-2-[2-(methyloxy)phenyl]-3-oxo-2,3-dihydro-1H-isoindol-1-yl}-1H-benzimidazol-2-yl)carbamate]: the IC50 on B-Raf and at c-Raf was less than 100 nM each time.

On to `COC(=O)Nc1nc2cc(C3(O)c4ccccc4C(=O)N3c3ccc(C)cc3)ccc2[nH]1` (centres unmarked) [Entry 146, methyl {5-[1-hydroxy-2-(4-methylphenyl)-3-oxo-2,3-dihydro-1H-isoindol-1-yl]-1H-benzimidazol-2-yl}carbamate], for which the IC50 at B-Raf and at c-Raf was 100 to 1000 nM in each case.

For the compound `COC(=O)Nc1nc2cc(C3(O)c4ccccc4C(=O)N3c3cccc(C(F)(F)F)c3)ccc2[nH]1` (centres unmarked) [Entry 147, methyl (5-{1-hydroxy-3-oxo-2-[3-(trifluoromethyl)phenyl]-2,3-dihydro-1H-isoindol-1-yl}-1H-benzimidazol-2-yl)carbamate], the IC50 on B-Raf and at c-Raf was less than 100 nM each time.

In the case of `CC#CCOC(=O)Nc1nc2cc(C3(O)c4ccccc4C(=O)N3[C@H](C)c3ccccc3)ccc2[nH]1` (stereo partly drawn) [Entry 148, but-2-yn-1-yl (5-{1-hydroxy-3-oxo-2-[(1R)-1-phenylethyl]-2,3-dihydro-1H-isoindol-1-yl}-1H-benzimidazol-2-yl)carbamate], the IC50 on B-Raf and at c-Raf was less than 100 nM in each case.

Take `CCNC(=O)Nc1nc2cc(C3(O)c4ccccc4C(=O)N3Cc3ccccc3)ccc2[nH]1` (centres unmarked) [Entry 149, N-ethyl-N′-{5-[1-hydroxy-3-oxo-2-(phenylmethyl)-2,3-dihydro-1H-isoindol-1-yl]-1H-benzimidazol-2-yl}urea]: the IC50 on B-Raf and on c-Raf was less than 100 nM throughout.

On to `C[C@H](c1ccccc1)N1C(=O)c2ccccc2C1(O)c1ccc2[nH]c(NC(=O)OCc3ccccc3)nc2c1` (stereo partly drawn) [Entry 150, phenylmethyl (5-{1-hydroxy-3-oxo-2-[(1R)-1-phenylethyl]-2,3-dihydro-1H-isoindol-1-yl}-1H-benzimidazol-2-yl)carbamate], for which the IC50 at B-Raf and on c-Raf was less than 100 nM throughout.

As to `COC(=O)Nc1nc2ccc(C3(O)c4ccccc4C(=O)N3c3cc(N)cc(Cl)c3)cc2[nH]1` (centres unmarked) [Entry 151, methyl {6-[2-(3-amino-5-chlorophenyl)-1-hydroxy-3-oxo-2,3-dihydro-1H-isoindol-1-yl]-1H-benzimidazol-2-yl}carbamate], the IC50 on B-Raf and on c-Raf was less than 100 nM in each case.

`O=C(Nc1nc2cc(C3(O)c4ccccc4C(=O)N3Cc3ccccc3)ccc2[nH]1)OCC1CCNCC1` (centres unmarked) [Entry 152, piperidin-4-ylmethyl {5-[1-hydroxy-3-oxo-2-(phenylmethyl)-2,3-dihydro-1H-isoindol-1-yl]-1H-benzimidazol-2-yl}carbamate]: the half-inhibitory concentration (IC50) on B-Raf was less than 100 nM; on c-Raf, 100 to 1000 nM.

With `COC(=O)Nc1nc2cc(C3(O)c4ccccc4C(=O)N3CC3CC3)ccc2[nH]1` (centres unmarked) [Entry 153, methyl {5-[2-(cyclopropylmethyl)-1-hydroxy-3-oxo-2,3-dihydro-1H-isoindol-1-yl]-1H-benzimidazol-2-yl}carbamate], the IC50 at B-Raf and on c-Raf was 100 to 1000 nM throughout.

As for `COC(=O)Nc1nc2cc(C3(O)c4ccccc4C(=O)N3CC(C)(C)C)ccc2[nH]1` (centres unmarked) [Entry 154, methyl {5-[2-(2,2-dimethylpropyl)-1-hydroxy-3-oxo-2,3-dihydro-1H-isoindol-1-yl]-1H-benzimidazol-2-yl}carbamate], the IC50 at B-Raf and on c-Raf was 1000 to 10000 nM throughout.

For the compound `COC(=O)Nc1nc2cc(C3(O)c4ccccc4C(=O)N3c3cc(Cl)cc(Cl)c3)ccc2[nH]1` (centres unmarked) [Entry 155, methyl {5-[2-(3,5-dichlorophenyl)-1-hydroxy-3-oxo-2,3-dihydro-1H-isoindol-1-yl]-1H-benzimidazol-2-yl}carbamate], the IC50 on B-Raf and at c-Raf was less than 100 nM each time.

With `COC(=O)Nc1nc2cc(C3(O)c4ccccc4C(=O)N3c3cc(F)cc(F)c3)ccc2[nH]1` (centres unmarked) [Entry 156, methyl {5-[2-(3,5-difluorophenyl)-1-hydroxy-3-oxo-2,3-dihydro-1H-isoindol-1-yl]-1H-benzimidazol-2-yl}carbamate], the IC50 on B-Raf and at c-Raf was 100 to 1000 nM throughout.

Take `CCNC(=O)Nc1nc2cc(C3(O)c4ccccc4C(=O)N3[C@H](C)c3ccccc3)ccc2[nH]1` (stereo partly drawn) [Entry 157, N-ethyl-N′-(5-{1-hydroxy-3-oxo-2-[(1R)-1-phenylethyl]-2,3-dihydro-1H-isoindol-1-yl}-1H-benzimidazol-2-yl)urea]: the IC50 on B-Raf and at c-Raf was less than 100 nM throughout.
